Assay results taken from patent US10450549B2, “Aryloxyphenoxypropionate tolerance in turfrgass species and use of AAD1 as a selectable marker” (Dow AgroSciences, LLC, priority 2004, dated 2019).

What was measured:
AAD1 (v1) = molecular target: T1, AAD1 (v1) (Sphingobium herbicidovorans, UniProt Q8KSC8); test: Colorimetric phenol detection assay of AAD1 (v1) activity (purified enzyme or E. coli extract); format: biochemical
T1 construct: made in house; host or cells: E. coli BL-21 Star (DE3), plasmid pDAB3203

[1] = system: AAD1 (v3)-transformed T1 Arabidopsis; test: T1 Arabidopsis response to postemergence herbicide (2,4-D, dichlorprop, haloxyfop, fluroxypyr), % visual injury 2 WAT: AAD1 (v3) transformants; format: in vivo, Arabidopsis thaliana; conditions: for % Injury Ave / individuals with 20-40% injury / individuals with <20% injury / individuals with >40% injury: Rebuilt AAD1 (v3) gene, 2 WAT
Description: Freshly harvested T1 seed (transformed with native [AAD1 (v2)] or plant optimized [AAD1 (v3)] gene) was allowed to dry for 7 days at room temperature. T1 seed was sown in 26.5×51-cm germination trays (T.O. Plastics Inc., Clearwater, Minn.), each receiving a 200 mg aliquots of stratified T1 seed (˜10,000 seed) that had previously been suspended in 40 ml of 0.1% agarose solution and stored at 4° C. for 2 days to complete dormancy requirements and ensure synchronous seed germination.
Sunshine Mix LP5 (Sun Gro Horticulture Inc., Bellevue, Wash.) was covered with fine vermiculite and subirrigated with Hoagland's solution until wet, then allowed to gravity drain. Each 40 ml aliquot of stratified seed was sown evenly onto the vermiculite with a pipette and covered with humidity domes (KORD Products, Bramalea, Ontario, Canada) for 4-5 days. Domes were removed 1 day prior to initial transformant selection using glufosinate postemergence spray (selecting for the co-transformed PAT gene).
Five to six days after planting (DAP) and again 10 DAP, T1 plants (cotyledon and 2-4-1f stage, respectively) were sprayed with a 0.2% solution of Liberty herbicide (200 g ai/L glufosinate, Bayer Crop Sciences, Kansas City, Mo.) at a spray volume of 10 ml/tray (703 L/ha) using a DeVilbiss compressed air spray tip to deliver an effective rate of 280 g ai/ha glufosinate per application. Survivors (plants actively growing) were identified 5-7 days after the final spraying and transplanted individually into 3-inch pots prepared with potting media (Metro Mix 360). Transplanted plants were covered with humidity domes for 3-4 days and placed in a 22° C. growth chamber as before. Domes were subsequently removed and plants moved to the greenhouse (22+5° C., 50+30% RH, 14 h light:10 dark, minimum 500 μE/m^2s^1 natural+supplemental light) at least 1 day prior to testing for the ability of AAD1 (v3) (plant optimized gene) or AAD1 (v2) (native microbial gene) to provide phenoxy auxin herbicide resistance.
(§1) Random individual T1 plants selected for glufosinate resistance above were confirmed for expression of the PAT protein using a PAT ELISA kit (Part no. 7000045, Strategic Diagnostics, Inc., Newark, Del.) to non-destructively confirm fidelity of selection process (manufacturer's protocol). Plants were then randomly assigned to various rates of phenoxy herbicides (dichlorprop or 2,4-D). […] Elevated rates were applied in subsequent trials (50, 200, 800, or 3200 g ae/ha).
(§2) All auxin herbicide applications were made using the DeVilbiss sprayer as described above to apply 703 L/ha spray volume (0.4 ml solution/3-inch pot) or applied by track sprayer in a 187 L/ha spray volume. […] Dichlorprop used was technical grade (Sigma, St. Louis, Mo.) dissolved in DMSO and diluted in water (<1% DMSO final concentration). As herbicide rates increased beyond 800 g ae/ha, the pH of the spray solution became exceedingly acidic, burning the leaves of young, tender Arabidopsis plants and complicating evaluation of the primary effects of the herbicides. It became standard practice to apply these high rates of phenoxy herbicides in 200 mM Tris buffer (pH 9.0) to a final pH of ˜7-8.
(§3) Although Arabidopsis, being a dicot, is not an optimal system for testing ACCase-inhibiting AOPP grass herbicides, AAD1 (v3)-transformed T1 plants were subjected to elevated rates (400-1600 g ae/ha) of RS-haloxyfop acid (internally synthesized) that do cause growth abnormalities and death of wildtype Arabidopsis using the DeVilbiss sprayer as described above. Injury ratings were taken 7 and 14 days after treatment. Likewise, T1 individuals were treated with the pyridyloxyacetate auxin herbicide, fluroxypyr.
Table 16. […] Response is presented in terms of % visual injury 2 WAT. […] Since each T1 is an independent transformation event, one can expect significant variation of individual T1 responses within a given rate. An arithmetic mean and standard deviation is presented for each treatment. […]

Wildtype Arabidopsis = test: T1 Arabidopsis spray test, % visual injury 2 WAT: wildtype control; format: in vivo, Arabidopsis thaliana; conditions: for % Injury Ave / individuals with 20-40% injury / individuals with <20% injury / individuals with >40% injury: Wildtype, 2 WAT
From the text: as §1, §2, §3
Table 16. […] Response is presented in terms of % visual injury 2 WAT. […] Since each T1 is an independent transformation event, one can expect significant variation of individual T1 responses within a given rate. An arithmetic mean and standard deviation is presented for each treatment. The range in individual response is also indicated in the last column for each rate and transformation. PAT/Cry1F-transformed Arabidopsis served as an auxin-sensitive transformed control. Wildtype Arabidopsis is untransformed.
(§4) Table 17. T1 Arabidopsis response to a range of dichlroprop rates applied postemergence. Response is presented in terms of % visual injury 2 WAT. […] Since each T1 is an independent transformation event, one can expect significant variation of individual T1 responses within a given rate. An arithmetic mean and standard deviation is presented for each treatment. The range in individual response is also indicated in the last column for each rate and transformation. PAT/Cry1F-transformed Arabidopsis served as an auxin-sensitive transformed control. Wildtype Arabidopsis is untransformed.
as §4, with “18.” for “17.”, “haloxyfop” for “dichlroprop”, “postemergence at artificially high rates attempting to show tolerance of the dicot Arabidopsis to the graminicide.” for “postemergence.”

O=C(O)COc1ccc(Cl)cc1Cl [2,4-D, 2,4-dichlorophenoxyacetic acid]
activity of AAD1 (v1) E. coli extract on substrate (AAD1 (v1); 0.5 mM substrate, 4 μl extract, 15 min): cleaved
Vmax (A510 units) (AAD1 (v1); AAD1 (v1) (pDAB3203), MOPS pH 6.75): 0.11 A510 units
A510, AAD1 (AAD1 (v1); Table 3, substrate 1 mM, 1 μg purified AAD1 (v1) per 0.16 ml assay, 15 min): 0.034
A510, AAD1 (10x) (AAD1 (v1); Table 3, substrate 1 mM, 10 μg purified AAD1 (v1) per 0.16 ml assay, 15 min): 0.383
A510 (AAD1 (v1); Table 8, 1 mM, 27 μg crude recombinant AAD1 (v1) extract from E. coli): 0.177
% 2,4-D (AAD1 (v1); Table 8, relative to 2,4-D, crude AAD1 (v1) extract): 100%
apparent Vmax, AAD1 (v1) (AAD1 (v1); partially purified enzyme): 0.11 A510 units
kcat (AAD1 (v1); purified AAD1 (v1)): 0.045 s⁻¹
Vmax ± SE (AAD1 (v1); purified AAD1 (v1), Michaelis-Menten fit): 0.57 ± 0.00 μmol min^−1 mg^−1 AAD1
injury of some AAD1 (v3) T1 individuals ([1]; 3,200 g ae/ha): little or no injury
T1 plants uninjured ([1]; AAD1 (v3), 200 g ae/ha): > 73%
% Injury Ave ([1]; 50 g ae/ha): 24.3%
individuals with 20-40% injury ([1]; 50 g ae/ha): 1
individuals with <20% injury ([1]; 50 g ae/ha): 10
individuals with >40% injury ([1]; 50 g ae/ha): 5
% Injury Ave ([1]; 200 g ae/ha): 14%
individuals with 20-40% injury ([1]; 200 g ae/ha): 4
individuals with <20% injury ([1]; 200 g ae/ha): 11
individuals with >40% injury ([1]; 200 g ae/ha): 1
% Injury Ave ([1]; 800 g ae/ha): 14.7%
individuals with 20-40% injury ([1]; 800 g ae/ha): 4
individuals with <20% injury ([1]; 800 g ae/ha): 11
individuals with >40% injury ([1]; 800 g ae/ha): 1
% Injury Ave (Wildtype Arabidopsis; 50 g ae/ha): 90.0%
individuals with 20-40% injury (Wildtype Arabidopsis; 50 g ae/ha): 0
individuals with <20% injury (Wildtype Arabidopsis; 50 g ae/ha): 0
individuals with >40% injury (Wildtype Arabidopsis; 50 g ae/ha): 15
% Injury Ave (Wildtype Arabidopsis; 200 g ae/ha): 95.1%
individuals with 20-40% injury (Wildtype Arabidopsis; 200 g ae/ha): 0
individuals with <20% injury (Wildtype Arabidopsis; 200 g ae/ha): 0
individuals with >40% injury (Wildtype Arabidopsis; 200 g ae/ha): 15
% Injury Ave (Wildtype Arabidopsis; 800 g ae/ha): 100.0%
individuals with 20-40% injury (Wildtype Arabidopsis; 800 g ae/ha): 0
individuals with <20% injury (Wildtype Arabidopsis; 800 g ae/ha): 0
individuals with >40% injury (Wildtype Arabidopsis; 800 g ae/ha): 15
GR99 for Arabidopsis (Wildtype Arabidopsis; postemergence spray): about 50 g ae/ha
